Results from publication PMC9592989, “Determination of (-)-epigallocatechin-3-gallate octaacetate and its metabolites in plasma of rats for pharmacokinetic study by ultra-performance-liquid-chromatography coupled to quadrupole-time-of-flight-mass-spectrometry” (Frontiers in Pharmacology, 2022).
Read-outs that look alike come from different tables or passages of the source.

Experiments:
[1] = Pharmacokinetic study in SD rats after intragastric administration of pro-EGCG, plasma by UPLC-Qtof-MS; format: in vivo, Sprague Dawley (SD) rats
Method: Fourteen to 16-weeks old female Sprague Dawley (SD) rats at reproductive age and of approximately 250 g were grouped in different cages in an air-conditioned room (22 ± 2°C) with a 12-h controlled lighting cycle. The SD rats were fed with standard chow and given free access to water. They were acclimatized for 1 week before the experiment. The study was approved by the Animal Experimentation Ethics Committee of the Chinese University of Hong Kong and was performed according to institutional guidelines. For validation studies, the rats were fasted overnight and then anesthetized by inhaling isoflurane (Baxter, IL, United States) for 15 min. Blank blood samples, approximately 10 mL, were withdrawn by cardiac puncture after experiments and before sacrifice.
Venous blood drawn from the SD rats was stored in an EDTA tube in an […] ice bath for not more than 10 min and centrifuged at 1780 × g and […] for 10 min. Plasma was aliquoted in 50 μL, mixed with 6 µL formic acid, and either immediately processed or stored at -80°C.
The extraction procedure was modified from our previous study ([Chu et al., 2014]). A plasma aliquot was spiked with 2.5 µL of 100 μg/mL pro-EGCG internal standard and mixed with 300 µL of isopropanol and 3 µL of formic acid. After vortexing for 2 min and sonicating for 2 min, 1 mL of MTBE and 150 µL magnesium chloride 0.043% solution were added. The mixture was again vortexed for 2 min and sonicated for 2 min. After settling, the mixture was centrifuged at 2,624 × g and 4°C for 10 min. The supernatant was pipetted into a glass tube by a glass Pasteur pipette and avoided touching the protein layer. The remaining aqueous layer was re-extracted by isopropanol and MTBE as described above. The supernatant was mixed with the previous extract and purged to dryness by nitrogen. The dried residues were dissolved in 100 µL methanol, sonicated for 30 s, vortexed for 2 min, and centrifuged at 3,634 × g at 4°C for 15 min. The supernatant was transferred to an HPLC vial for LCMS analysis. Methanol can completely dissolve pro-EGCG and precipitate protein matrix from the residues.
Plasma extract was analyzed by Agilent 6,540 Liquid chromatography-electrospray ionization quadrupole-TOF Mass Spectrometer. The extract, 8 μL, was separated by Waters Cortex UPLC C18 1.6 µm × 2.1 × 150 mm column (Waters, Milford, MA). Mobile phase A was 0.1 mM ammonia solution/acetonitrile/methanol/formic acid [80:15:5:0.2 (v/v/v/v)] and mobile phase B acetonitrile/methanol/0.1 mM ammonia solution/formic acid [92.5:5:2.5:0.2 (v/v/v/v)]. The column temperature was 40°C and the flow rate was 0.4 mL/min. The binary elusion program: 20% B, 0–2 min; 20%–60% B, 2–10 min; 60%–100% B, 10–11 min; 100% B, 11–18 min; 100%–20% B, 18–19 min; 20% B, 19–24 min. Positive electrospray ionization was used with capillary voltage (VCap) at 4500V, nozzle voltage at 1000 V, the gas temperature at 300°C, drying gas at 8 L/min, nebulizer pressure at 40 psi, sheath gas temperature at 300°C, and sheath gas flow at 11 L/min. The acquisition range was 100–1,000 m/z. The exact mass method was used for quantification at the range of 812.2043 ± 0.06 m/z for pro-EGCG ammonium adduct [M + NH4]^+ and 803.2039 ± 0.06 m/z for internal standard pro-EGCG-1–13C8 hydrogen adduct [M + H]^+. The mass was locked by continuous infusion of calibration standards with lock mass calibrated at 922.0 m/z.
For analysis of the metabolites, the predicted masses of pro-EGCG metabolites as calculated from de-acetylation, glucuronidation, sulphation, and methylation were scanned from the chromatogram of the first-hour plasma samples after intragastric administration of pro-EGCG. For a particular metabolite, the predicted target molecular mass of the metabolite was submitted for MS/MS analysis within ± 1 min around the retention time of the peak. The chromatography and mass spectrum conditions were the same as above. The collision energy was set for […] and the daughter ion scan ranged from 100–1,000 Da. […]

[2] = Stability of pro-EGCG in rat plasma (room temperature; esterase inhibitors; formic acid); format: in vitro ADME; conditions: for stability of pro-EGCG in plasma at room temperature: 50 μg/mL pro-EGCG spiked in rat plasma, 0-60 min
Method: The stability of pro-EGCG in plasma at room temperature was assessed by spiking 50.0 μg/mL pro-EGCG into three sets of 50 µL plasma samples. Each plasma sample was spiked with 5.0 μg/mL pro-EGCG internal standard at time points 0, 3, 5, 10, 20, 30, and 60 min before snap-frozen by liquid nitrogen. The samples were processed as described above and analyzed by UPLC‐Qtof-MS.
We also evaluated the stabilizing effect of different esterase inhibitors. The inhibitors, 4-(2-aminoethyl-)benzenesulponylfluoride HCL (penfabloc), bis-nitophenyl phosphate (BNPP), N-α-tosyl-L-lysine chloromethylketone HCL (TLCK), and dichlorvos, at plasma level of 30 mM; a mixture of sodium fluoride–potassium oxalate (NaF-KO) at plasma level of 10.0 mg/mL and 8.0 mg/mL; and 6 µL formic acid in 50 µL fresh rat plasma sample were used. Subsequently, pro-EGCG was spiked into the blank rat plasma at 5.0 μg/mL in an ice bath for 10 min. An internal standard, 5.0 μg/mL, was added to the plasma samples and snap-frozen by liquid nitrogen at the 10th minute. Three sets of samples were tested. The samples were processed as above and analyzed by UPLC‐Qtof-MS.
The stability of pro-EGCG in plasma with formic acid was assessed by mixing 6 µL of formic acid with 5.0 μg/mL pro-EGCG in 50 µL plasma and stored in an ice bath. Each three plasma samples were spiked with 5.0 μg/mL pro-EGCG internal standard and snap-frozen by liquid nitrogen at time points 0, 10, 15, 20, 30, 45, and 60 min. The samples were analyzed as described. Stability (%)=calculated concentration of pro−EGCG under different treatment /actual spiked concentration×100%

[3] = Stability of pro-EGCG in processed plasma extracts on storage; format: physicochemical; conditions: 5.0 μg/mL pro-EGCG of processed samples stored at 4°C for 7 days and 4 weeks at -20°C
Method: Three processed plasma samples extracted at 5.0 μg/mL were stored at 4°C for a week. They were tested at t = 0 and 7 days. This duration was selected to ensure the test period is sufficient to cover a batch of samples for analysis in the auto-sampler ([Brodie and Hill, 2002]; [Department of Medical Sciences Ministry of Public Health, 2022]). […] This test period covered common the maximum storage period pending for batches of analysis.

[4] = test system: proteasome activity of breast cancer cells, MDA-MB231; parameters: method as in Landis-Piwowar et al., 2007; conditions: animal models, relative to EGCG, ref Landis-Piwowar et al., 2007; cited from earlier work
[5] = test system: induced prostate cancer; parameters: method as in Lee et al., 2008; conditions: nude mice with induced prostate cancer; relative to EGCG; ref Lee et al., 2008; cited from earlier work
[6] = test system: induced skin tumors; parameters: method as in Chiou et al., 2013; conditions: mice with induced skin tumors; ref Chiou et al., 2013; cited from earlier work
[7] = test system: human lung cancer H460 cells; parameters: method as in Heyza et al., 2018; conditions: compared with EGCG treatment, ref Heyza et al., 2018; cited from earlier work
[8] = test system: plasma vascular endothelial growth factor (VEGF); parameters: method as in Wang et al., 2013; conditions: mouse model with induced endometriotic lesions; ref Wang et al., 2013; cited from earlier work
[9] = parameters: method as in Lambert et al., 2006; conditions: intragastric administration, CF-1 mice; ref Lambert et al., 2006; cited from earlier work
[10] = female, Sprague-Dawley, rat, plasma, po, 50 mg/kg, proposed metabolite in rat plasma after intragastric 50 mg/kg pro-EGCG, no standards, not confirmed, read-out: Tmax of pro-EGCG metabolite
[11] = female, Sprague-Dawley, rat, po, SD rats (n = 3), plasma, within 24 h after intragastric 50 mg/kg pro-EGCG, Mean ± SE

With `CC(=O)Oc1cc([C@H]2Oc3cc(O)cc(O)c3C[C@H]2OC(=O)c2cc(O)c(O)c(O)c2)cc(OC(C)=O)c1OC(C)=O` [EGCG-3Ac, EGCG triacetates] the Tmax [1, 10] was roughly 5 h and the “degradation of EGCG-3Ac (production rate of EGCG-2Ac)” value ([1]; rat plasma profile after intragastric 50 mg/kg pro-EGCG, peak ratio to internal standard) was “about 1.25 × 10^−5 EGCG-3Ac/IS/hr”.
With `CC(=O)Oc1cc(OC(C)=O)c2c(c1)O[C@H](c1cc(OC(C)=O)c(OC(C)=O)c(OC(C)=O)c1)[C@H](OC(=O)c1cc(OC(C)=O)c(OC(C)=O)c(OC(C)=O)c1)C2` [pro-EGCG, (-)-Epigallocatechin-gallate octaacetate] the Cmax ([1]; female, Sprague-Dawley, oral, 50 mg/kg, non-compartmental analysis, rat plasma (n = 3) over 24 h) was 67 ± 0.04 ng/mL, the Tmax ([1]; female, Sprague-Dawley, rat, plasma, po, 50 mg/kg, SD rats (n = 3), plasma, within 24 h after intragastric 50 mg/kg pro-EGCG, Mean ± SE, read-out: Tmax) was 1.33 ± 0.33 h and the Tmax ([1]; female, Sprague-Dawley, rat, plasma, po, 50 mg/kg, oral administration, SD rats, 50 mg/kg pro-EGCG, read-out: time-of-maximum-concentration (Tmax)) was 1.33 h. It also gave an AUC ([1]; female, Sprague-Dawley, rat, plasma, oral administration, SD rats, 50 mg/kg pro-EGCG, read-out: area-under-curve (AUC)) of 200 ± 50 ng·h/mL, a Cmax [1, 11] of 67 ± 40 ng/mL and an MRT [1, 11] of 12.9 ± 6.4 h. For the same compound, the k el ([1]; female, Sprague-Dawley, rat, po, SD rats (n = 3), plasma, within 24 h after intragastric 50 mg/kg pro-EGCG, Mean ± SE, read-out: Lambda Z (converted)) was 5.56e-05 s⁻¹, the elimination-rate ([1]; oral administration, SD rats, 50 mg/kg pro-EGCG) was 0.20 ± 0.11 h⁻¹ and the “stability of pro-EGCG in plasma at room temperature” value [2] was “rapidly degraded”. The “stability of pro-EGCG in plasma at room temperature” value ([2]; listed as Pro-EGCG) was “unstable”, the pro-EGCG remaining ([2]; formic acid treated plasma (6 µL in 50 µL), 5.0 μg/mL, 10 min in an ice bath, Mean ± SD, n = 3) was 103 ± 3.6% and the pro-EGCG left ([2]; other esterase inhibitors treated plasma (TLCK, BNPP, dichlorvos, pefabloc 30 mM; NaF-KO), 5.0 μg/mL, 10 min in an ice bath) was “less than 22%”. The Pro-EGCG remained [3] was “above 95%”, the “potency in inhibiting proteasome activity compared to the equivalent amount of EGCG” value [4] was “more than two-fold” and the “tumor volume smaller after pro-EGCG treatment than EGCG treatment” value [5] was 40.1%. For the same compound, the “average number of tumors per mouse” value [6] was “three folds lower”, the tumor incidences [6] was “three folds lower” and the “half-maximal inhibitory concentration (IC50) of clonogenicity” value [7] was “slightly lower”. For the same compound, the “plasma VEGF concentration relative to the concentration treated by EGCG” value [8] was “two-thirds” and the “bioavailability of EGCG compared with EGCG administered at equimolar doses” value [9] was “higher”.
Compound `CC(=O)Oc1cc([C@H]2Oc3cc(O)cc(O)c3C[C@H]2OC(=O)c2cc(O)c(O)c(O)c2)cc(O)c1OC(C)=O` [EGCG-2Ac, (-)-epigallocatechin-gallate (EGCG) diacetates] has a Tmax [1, 10] of roughly 1 h.
